Consider 23 molecules from ChEMBL document CHEMBL3871302, “Synthesis of novel steroidal agonists, partial agonists, and antagonists for the glucocorticoid receptor” (Bioorg Med Chem Lett, 2017).

The source made the active and inactive calls. No cut-off for these calls is given here.

The IC50 is the concentration that inhibits the measured activity by half. The EC50 is the concentration needed to bring the measured effect to its halfway point.

What all share (assay type): cell-based
Assay [1] concerns the target T1, Glucocorticoid receptor (Mus musculus) (UniProt P06537).
T1 sequence (whole entry): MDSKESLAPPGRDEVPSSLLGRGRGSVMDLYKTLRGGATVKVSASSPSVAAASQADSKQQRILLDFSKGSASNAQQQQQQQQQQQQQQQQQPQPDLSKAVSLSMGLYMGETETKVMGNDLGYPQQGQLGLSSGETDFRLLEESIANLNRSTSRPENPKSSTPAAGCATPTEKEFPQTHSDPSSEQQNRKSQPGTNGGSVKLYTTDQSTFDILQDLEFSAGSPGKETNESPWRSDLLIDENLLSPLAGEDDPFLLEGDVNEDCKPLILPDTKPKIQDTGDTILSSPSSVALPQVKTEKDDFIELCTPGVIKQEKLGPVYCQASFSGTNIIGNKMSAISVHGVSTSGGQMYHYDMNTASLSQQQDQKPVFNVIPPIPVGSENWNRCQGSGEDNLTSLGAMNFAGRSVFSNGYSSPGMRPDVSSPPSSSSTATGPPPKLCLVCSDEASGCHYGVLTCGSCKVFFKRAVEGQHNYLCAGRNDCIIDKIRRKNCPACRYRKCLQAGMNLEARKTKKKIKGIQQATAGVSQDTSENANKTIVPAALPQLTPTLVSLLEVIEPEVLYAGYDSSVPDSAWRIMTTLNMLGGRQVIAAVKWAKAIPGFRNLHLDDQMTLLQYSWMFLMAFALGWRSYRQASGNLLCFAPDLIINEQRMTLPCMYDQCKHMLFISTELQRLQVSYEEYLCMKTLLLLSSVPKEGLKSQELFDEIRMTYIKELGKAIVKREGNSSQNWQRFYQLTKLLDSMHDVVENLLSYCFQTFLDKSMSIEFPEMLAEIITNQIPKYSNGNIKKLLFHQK
Description: Agonist activity at GR in mouse C2C12 cells assessed as suppression of LPS-induced IL6 production by alphaLISA assay.

For assay [2], the target named is T2, Glucocorticoid receptor (Homo sapiens) (UniProt P04150).
T2 sequence (whole entry): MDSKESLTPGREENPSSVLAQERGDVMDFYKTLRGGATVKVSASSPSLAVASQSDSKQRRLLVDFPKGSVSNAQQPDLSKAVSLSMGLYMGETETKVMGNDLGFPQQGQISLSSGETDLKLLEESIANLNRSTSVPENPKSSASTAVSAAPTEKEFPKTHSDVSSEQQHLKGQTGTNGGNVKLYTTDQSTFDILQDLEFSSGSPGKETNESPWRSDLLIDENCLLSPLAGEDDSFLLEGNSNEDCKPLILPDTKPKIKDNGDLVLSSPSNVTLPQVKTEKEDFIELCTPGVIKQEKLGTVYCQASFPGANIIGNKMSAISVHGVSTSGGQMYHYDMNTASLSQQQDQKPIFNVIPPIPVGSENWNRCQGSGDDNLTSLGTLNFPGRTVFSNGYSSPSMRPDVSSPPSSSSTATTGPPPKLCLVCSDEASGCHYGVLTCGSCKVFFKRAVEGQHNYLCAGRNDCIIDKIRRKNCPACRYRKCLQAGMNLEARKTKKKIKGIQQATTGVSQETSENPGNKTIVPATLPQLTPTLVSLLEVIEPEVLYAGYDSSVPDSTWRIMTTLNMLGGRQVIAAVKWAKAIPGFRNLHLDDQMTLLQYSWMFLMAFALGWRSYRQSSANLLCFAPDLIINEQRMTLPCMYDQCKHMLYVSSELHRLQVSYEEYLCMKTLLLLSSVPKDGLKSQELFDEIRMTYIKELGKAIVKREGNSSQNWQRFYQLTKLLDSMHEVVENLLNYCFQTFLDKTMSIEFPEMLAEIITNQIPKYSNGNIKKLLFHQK
The assay can be described thus: (§1) Antagonist activity at GR in human HepG2 cells assessed as inhibition of protein mediated-transcriptional activity by MMTV-promoter driven luciferase reporter gene assay. A general note: In a reporter assay the amount or activity of a reporter protein is the signal.

Assay [3] concerns the target T3, Glucocorticoid receptor (Homo sapiens, UniProt P04150).
T3 sequence (P04150 whole entry): T2 sequence (whole entry)
The assay is described as §1.

The target of assay [4] is T2, Glucocorticoid receptor (Homo sapiens). The assay can be described thus: (§2) Agonist activity at GR in human HepG2 cells assessed as protein mediated-transcriptional activity by MMTV-promoter driven luciferase reporter gene assay.
In assay [5] the target is T1, Glucocorticoid receptor (Mus musculus). Description: Antagonist activity at GR in mouse C2C12 cells assessed as increase in LPS-induced IL6 production by alphaLISA assay relative to control. Also noted: scale not given: the % may be the effect or the level left.
The target in assay [6] is T3, Glucocorticoid receptor. Described as §2.
The target in assay [7] is T2, Glucocorticoid receptor (Homo sapiens). The assay can be described thus: Antagonist activity at GR in human HepG2 cells assessed as inhibition of protein mediated-transcriptional activity at 10 uM by MMTV-promoter driven luciferase reporter gene assay.

With `CC#C[C@]1(O)CC[C@H]2[C@@H]3CCc4cc(C(=O)Nc5cccnc5C)ccc4[C@H]3[C@@H](OCc3ccccc3Cl)C[C@@]21C`, the result in assay [1] was Active. Further, the Efficacy in assay [2] was 1.7%; in assay [4], 0.6%. For the same molecule, the IC50 at Glucocorticoid receptor [3] was determined as 1.4 nM.
On to `CC#C[C@]1(O)CC[C@H]2[C@@H]3CCc4cc(C(=O)Nc5cccnc5)ccc4[C@H]3[C@@H](O)C[C@@]21C`, for which the Activity in assay [5] came out at 50%. The Efficacy was 10% in assay [2] and 0.2% in assay [4]. For the same molecule, the IC50 on Glucocorticoid receptor [3] came out at 455 nM.
With `CC#C[C@]1(O)CC[C@H]2[C@@H]3CCc4cc(C(=O)Nc5cccnc5C)ccc4[C@H]3[C@@H](OCc3cccc(Cl)c3)C[C@@]21C`, the result in assay [1] was Active. For the same molecule, the Efficacy in assay [2] was -0.3%; in assay [4], 0.2%. The IC50 on Glucocorticoid receptor [3] amounted to 0.9 nM.
With `CC#C[C@]1(O)CC[C@H]2[C@@H]3CCc4cc(C(=O)Nc5cccnc5C)ccc4C3=CC[C@@]21C`, the result in assay [1] was Active. Also, the values for the Efficacy in assay [2] and in assay [4] were 30.6% and 51.6%, respectively. On Glucocorticoid receptor [6], the EC50 came out at 1860 nM.
Turning to `Cc1ncccc1NC(=O)c1ccc2c(c1)CC[C@@H]1[C@@H]2[C@@H](O)C[C@@]2(C)[C@H]1CC[C@@]2(O)C#Cc1ccccc1`, the outcome in assay [5] was Active. For the same molecule, the Efficacy came out at 1.4% in assay [2] and 2.1% in assay [4]. Moreover, at Glucocorticoid receptor [3], the IC50 was 558 nM.
For `Cc1ncccc1NC(=O)c1ccc2c(c1)CC[C@@H]1[C@@H]2[C@@H](O)C[C@@]2(C)[C@H]1CC[C@@]2(O)C#C[Si](C)(C)C`, the outcome in assay [5] was Active. Also, the Efficacy turned out to be 90% in assay [2] and 110% in assay [4]. Also, the EC50 at Glucocorticoid receptor [6] amounted to 47 nM.
`CC#C[C@]1(O)CC[C@H]2[C@@H]3CCc4cc(C(=O)Nc5cncc(C)c5)ccc4[C@H]3[C@@H](O)C[C@@]21C`: the Efficacy in assay [7] was 22%; in assay [4] it was -0.1%. Besides, the outcome in assay [5] was Active.
As for `CCCCC#C[C@]1(O)CC[C@H]2[C@@H]3CCc4cc(C(=O)Nc5cccnc5C)ccc4[C@H]3[C@@H](O)C[C@@]21C`, in assay [5], the outcome was Active. Also, the Efficacy in assay [2] amounted to 74%; in assay [4], 56%. Further, the 50% inhibitory concentration (IC50) at Glucocorticoid receptor [3] is 2350 nM. Further, on Glucocorticoid receptor [6], the EC50 turned out to be 100 nM.
As for `CC#C[C@]1(O)CC[C@H]2[C@@H]3CCc4cc(C(=O)Nc5ncccc5C)ccc4[C@H]3[C@@H](O)C[C@@]21C`, the outcome in assay [1] was Active. Besides, the Efficacy in assay [2] is 239%; in assay [4] it was 92%. Moreover, the EC50 on Glucocorticoid receptor [6] was determined as 280 nM.
In the case of `Cc1ncccc1NC(=O)c1ccc2c(c1)CC[C@@H]1[C@@H]2[C@@H](O)C[C@@]2(C)[C@H]1CC[C@]2(C)O`, the outcome in assay [5] was Active. In addition, the Efficacy in assay [2] is 112%; in assay [4] it was -0.5%.
On to `CC#C[C@]1(O)CC[C@H]2[C@@H]3CCc4cc(C(=O)Nc5cccnc5C)ccc4[C@H]3[C@@H](OCc3ccc(Cl)cc3)C[C@@]21C`, for which the result in assay [1] was Active. The results for the Efficacy in assay [2] and in assay [4] were 0.06% and -0.2%, respectively. For the same molecule, at Glucocorticoid receptor [3], the IC50 came out at 0.07 nM.
For the molecule `CC#C[C@]1(O)CC[C@H]2[C@@H]3CCc4cc(C(=O)Nc5cccnc5C)ccc4[C@H]3[C@H](O)C[C@@]21C`, in assay [1], the outcome was Active. In addition, the Efficacy was found to be 55% in assay [2] and 19.4% in assay [4].
For `C=CCO[C@H]1C[C@@]2(C)[C@@H](CC[C@@]2(O)C#CC)[C@@H]2CCc3cc(C(=O)Nc4cccnc4C)ccc3[C@H]21`, in assay [1], the result was Active. In addition, the results for the Efficacy in assay [2] and in assay [4] were 57% and 56%, respectively. Besides, the IC50 on Glucocorticoid receptor [3] came out at 0.03 nM. Also, the EC50 on Glucocorticoid receptor [6] was 0.11 nM.
The like results for `CC#C[C@]1(O)CC[C@H]2[C@@H]3CCc4cc(C(=O)Nc5cccnc5C)ccc4[C@H]3[C@@H](O)C[C@@]21C` were, in that order, “Active”, 46%, 35%, 626 nM and 265 nM.
`C=CCOC(=O)O[C@H]1C[C@@]2(C)[C@@H](CC[C@@]2(O)C#CC)[C@@H]2CCc3cc(C(=O)Nc4cccnc4C)ccc3[C@H]21`: in assay [1], the outcome was Active. Also, the Efficacy in assay [2] is -0.7%; in assay [4] it was 2.4%. For the same molecule, the IC50 on Glucocorticoid receptor [3] came out at 84 nM.
For the molecule `Cc1ncccc1NC(=O)c1ccc2c(c1)CC[C@@H]1[C@@H]2[C@@H](O)C[C@@]2(C)[C@H]1CC[C@@]2(O)C#CC(C)C`, the outcome in assay [5] was Active. Besides, the figures for the Efficacy in assay [2] and in assay [4] were 39% and 28%, respectively. Besides, the IC50 on Glucocorticoid receptor [3] was determined as 37 nM. Further, at Glucocorticoid receptor [6], the EC50 was more than 5000 nM.
Consider `CC#C[C@]1(O)CC[C@H]2[C@@H]3CCc4cc(C(=O)Nc5cccnc5C)ccc4[C@H]3[C@@H](OCc3ccccc3)C[C@@]21C`, for which the outcome in assay [1] was Active. For the same molecule, the values for the Efficacy in assay [2] and in assay [4] were -0.1% and -0.4%, respectively. For the same molecule, the IC50 on Glucocorticoid receptor [3] stood at 0.4 nM.
For the molecule `CC#C[C@]1(O)CC[C@H]2[C@@H]3CCc4cc(C(=O)Nc5cccnc5C)ccc4[C@H]3[C@@H](OCC)C[C@@]21C`, in assay [1], the outcome was Active. Moreover, the Efficacy in assay [2] was determined as 73%; in assay [4], 67%. Moreover, at Glucocorticoid receptor [6], the EC50 turned out to be 0.05 nM.
The like results for `CC#C[C@]1(O)CC[C@H]2[C@@H]3CCc4cc(C(=O)Nc5cccnc5C)ccc4[C@H]3[C@@H](OC)C[C@@]21C` were, in that order, “Active”, 84%, 71% and 0.04 nM.
For `CC#C[C@]1(O)CC[C@H]2[C@@H]3CCc4cc(C(=O)Nc5cnccc5C)ccc4[C@H]3[C@@H](O)C[C@@]21C` the same measures were “Active”, 147%, 73% and 240 nM.
`CC#C[C@]1(O)CC[C@H]2[C@@H]3CCc4cc(C(=O)Nc5ccncc5C)ccc4[C@H]3[C@@H](O)C[C@@]21C`: the outcome in assay [5] was Active. Also, the Efficacy in assay [2] was 23%; in assay [4], 12%. In addition, the IC50 on Glucocorticoid receptor [3] is 1360 nM. Further, the EC50 at Glucocorticoid receptor [6] was determined as 149 nM.
`Cc1ncccc1NC(=O)c1ccc2c(c1)CC[C@@H]1[C@@H]2[C@@H](O)C[C@]2(C)[C@@H](O)CC[C@@H]12`: the result in assay [5] was Active. Further, the Efficacy in assay [2] came to 85%; in assay [4] it was 0.4%.
For the molecule `C#C[C@]1(O)CC[C@H]2[C@@H]3CCc4cc(C(=O)Nc5cccnc5C)ccc4[C@H]3[C@@H](O)C[C@@]21C`, the outcome in assay [5] was Active. Moreover, the Efficacy in assay [2] came out at 96%; in assay [4] it was 3.2%.
